Laboratory results taken from US6737383B1, “Herbicidal oxadiazolidines” (priority 1999, dated 2004).

Legend:
bedstraw = test: Test B pre/postemergence bedstraw; assay type: in vivo, Galium aparine
Summary of the method: (§1)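 Test chemicals in a non-phytotoxic solvent mixture with surfactant were sprayed preemergence onto planted seeds and postemergence onto plants 2 to 18 cm tall (1- to 4-leaf stage). After twelve to sixteen days in a greenhouse, injury was visually rated against untreated controls from 0 (no effect) to 10 (complete control).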

blackgrass = test: Test B pre/postemergence blackgrass; assay type: in vivo, Alopecurus myosuroides
Summary of the method: as §1

surinam grass = test: Test B pre/postemergence surinam grass; assay type: in vivo, Brachiaria decumbens
Source text: (§2) Seeds of bedstraw (Galium aparine), blackgrass (Alopecurus myosuroides), surinam grass (Brachiaria decumbens), cocklebur (Xanthium strumarium), corn (Zea mays), crabgrass (Digitaria sanguinalis), giant foxtail (Setaria faberii), morningglory (Ipomoea hederacea), pigweed (Amaranthus retroflexus), rape (Brassica napus), soybean (Glycine max), sugar beet (Beta vulgaris), velvetleaf (Abutilon theophrasti), wheat (Triticum aestivum), wild oat (Avena fatua) and purple nutsedge (Cyperus rotundus) tubers were planted and treated preemnergence with test chemicals formulated in a non-phytotoxic solvent mixture which included a surfactant.
(§3) At the same time, these crop and weed species were also treated with postemergence applications of test chemicals formulated in the same manner. Plants ranged in height from 2 to 18 cm (1- to 4-leaf stage) for postemergence treatments. Plant species in the flood test consisted of rice (Oryza sativa), smallflower flatsedge (Cyperus difformis), duck salad (Heteranthera limosa) and bamyardgrass (Echinochloa crus-galli) grown to the 2-leaf stage for testing. Treated plants and controls were maintained in a greenhouse for twelve to sixteen days, after which all species were compared to controls and visually evaluated. Plant response ratings, summarized in Table B, are based on a scale of 0 to 10 where 0 is no effect and 10 is complete control. A dash (−) response means no test result.

cocklebur = test: Test B pre/postemergence cocklebur; assay type: in vivo, Xanthium strumarium
Summary of the method: as §1

corn = test: Test B pre/postemergence corn; assay type: in vivo, Zea mays
Summary of the method: as §1

crabgrass = test: Test B pre/postemergence crabgrass; assay type: in vivo, Digitaria sanguinalis
Source text: as §2, §3

giant foxtail = test: Test B pre/postemergence giant foxtail; assay type: in vivo, Setaria faberii
Summary of the method: as §1

morningglory = test: Test B pre/postemergence morningglory; assay type: in vivo, Ipomoea hederacea
Source text: as §2, §3

pigweed = test: Test B pre/postemergence pigweed; assay type: in vivo, Amaranthus retroflexus
Summary of the method: as §1

rape = test: Test B pre/postemergence rape; assay type: in vivo, Brassica napus
Source text: as §2, §3

soybean = test: Test B pre/postemergence soybean; assay type: in vivo, Glycine max
Summary of the method: as §1

sugar beet = test: Test B pre/postemergence sugar beet; assay type: in vivo, Beta vulgaris
Summary of the method: as §1

velvetleaf = test: Test B pre/postemergence velvetleaf; assay type: in vivo, Abutilon theophrasti
Source text: as §2, §3

wheat = test: Test B pre/postemergence wheat; assay type: in vivo, Triticum aestivum
Summary of the method: as §1

wild oat = test: Test B pre/postemergence wild oat; assay type: in vivo, Avena fatua
Source text: as §2, §3

purple nutsedge = test: Test B pre/postemergence purple nutsedge; assay type: in vivo, Cyperus rotundus
Summary of the method: as §1

[1] = Postemergence, Rate 125 g/ha, scale of 0 to 10 where 0 is no effect and 10 is complete control
[2] = Preemergence, Rate 62 g/ha, scale 0 to 10 (0 no effect, 10 complete control)
[3] = Preemergence, Rate 125 g/ha, 0 is no effect, 10 is complete control
[4] = Preemergence, Rate 250 g/ha, scale 0 to 10, 0 is no effect, 10 is complete control
[5] = Preemergence, Rate 500 g/ha, scale 0 to 10 (0 no effect, 10 complete control)
[6] = Rate 62 g/ha, Postemergence, scale of 0 to 10 where 0 is no effect and 10 is complete control
[7] = Rate 250 g/ha, Postemergence, scale 0 to 10, 0 is no effect, 10 is complete control
[8] = Rate 500 g/ha, Postemergence, scale 0 to 10

## CC(C)N(C(=O)n1oc(=O)n(C(C)c2ccccc2)c1=O)c1ccc(F)cc1 (stereo not shown) [Compound 134]
bedstraw; [1]
  Bedstraw plant response rating: 4
bedstraw; [2]
  Bedstraw plant response rating: 0
bedstraw; [3]
  Bedstraw plant response rating (0 to 10 scale): 0
bedstraw; [4]
  Bedstraw plant response rating: 0
bedstraw; [5]
  Bedstraw plant response rating: 3
bedstraw; [6]
  Bedstraw plant response rating: 4
bedstraw; [7]
  Plant response rating, Bedstraw: 4
blackgrass; [1]
  Blackgrass plant response rating: 0
blackgrass; [2]
  Blackgrass plant response rating: 0
blackgrass; [3]
  Blackgrass plant response rating (0 to 10 scale): 0
blackgrass; [4]
  Blackgrass plant response rating: 2
blackgrass; [5]
  Blackgrass plant response rating: 2
blackgrass; [6]
  Blackgrass plant response rating: 0
blackgrass; [7]
  Plant response rating, Blackgrass: 0
blackgrass; [8]
  Blackgrass plant response rating: 7
Surinam grass; [1]
  B. signalgrass plant response rating: 0
Surinam grass; [2]
  B. signalgrass plant response rating: 0
Surinam grass; [3]
  B. signalgrass plant response rating (0 to 10 scale): 2
Surinam grass; [4]
  B. signalgrass plant response rating: 6
Surinam grass; [5]
  B. signalgrass plant response rating: 8
Surinam grass; [6]
  B. signalgrass plant response rating: 0
Surinam grass; [7]
  Plant response rating, B. signalgrass: 0
Surinam grass; Rate 500 g/ha, Postemergence, scale of 0 to 10 where 0 is no effect and 10 is complete control
  B. signalgrass plant response rating: 2
cocklebur; [1]
  Cocklebur plant response rating: 0
cocklebur; [2]
  Cocklebur plant response rating: 0
cocklebur; [3]
  Cocklebur plant response rating (0 to 10 scale): 0
cocklebur; [4]
  Cocklebur plant response rating: 0
cocklebur; [5]
  Cocklebur plant response rating: 0
cocklebur; [6]
  Cocklebur plant response rating: 0
cocklebur; [7]
  Plant response rating, Cocklebur: 0
cocklebur; [8]
  Cocklebur plant response rating: 1
corn; [1]
  Corn plant response rating: 0
corn; [2]
  Corn plant response rating: 0
corn; [3]
  Corn plant response rating (0 to 10 scale): 0
corn; [4]
  Corn plant response rating: 0
corn; [5]
  Corn plant response rating: 0
corn; [6]
  Corn plant response rating: 0
corn; [7]
  Plant response rating, Corn: 0
corn; [8]
  Corn plant response rating: 0
crabgrass; [1]
  Crabgrass plant response rating: 0
crabgrass; [2]
  Crabgrass plant response rating: 2
crabgrass; [3]
  Crabgrass plant response rating (0 to 10 scale): 6
crabgrass; [4]
  Crabgrass plant response rating: 9
crabgrass; [5]
  Crabgrass plant response rating: 9
crabgrass; [6]
  Crabgrass plant response rating: 0
crabgrass; [7]
  Plant response rating, Crabgrass: 4
crabgrass; [8]
  Crabgrass plant response rating: 9
Giant foxtail; [1]
  Giant foxtail plant response rating: 0
Giant foxtail; [2]
  Giant foxtail plant response rating: 6
Giant foxtail; [3]
  Giant foxtail plant response rating (0 to 10 scale): 9
Giant foxtail; [4]
  Giant foxtail plant response rating: 10
Giant foxtail; [5]
  Giant foxtail plant response rating: 10
Giant foxtail; [6]
  Giant foxtail plant response rating: 0
Giant foxtail; [7]
  Plant response rating, Giant foxtail: 0
Giant foxtail; [8]
  Giant foxtail plant response rating: 3
morningglory; [1]
  Morningglory plant response rating: 6
morningglory; [2]
  Morningglory plant response rating: 0
morningglory; [3]
  Morningglory plant response rating (0 to 10 scale): 0
morningglory; [4]
  Morningglory plant response rating: 0
morningglory; [5]
  Morningglory plant response rating: 1
morningglory; [6]
  Morningglory plant response rating: 5
morningglory; [7]
  Plant response rating, Morningglory: 8
morningglory; [8]
  Morningglory plant response rating: 8
pigweed; [1]
  Redroot pigweed plant response rating: 0
pigweed; [2]
  Redroot pigweed plant response rating: 0
pigweed; [3]
  Redroot pigweed plant response rating (0 to 10 scale): 0
pigweed; [4]
  Redroot pigweed plant response rating: 0
pigweed; [5]
  Redroot pigweed plant response rating: 2
pigweed; [6]
  Redroot pigweed plant response rating: 0
pigweed; [7]
  Plant response rating, Redroot pigweed: 0
pigweed; [8]
  Redroot pigweed plant response rating: 0
rape; [1]
  Rape plant response rating: 0
rape; [2]
  Rape plant response rating: 0
rape; [3]
  Rape plant response rating (0 to 10 scale): 0
rape; [4]
  Rape plant response rating: 0
rape; [5]
  Rape plant response rating: 6
rape; [6]
  Rape plant response rating: 0
rape; [7]
  Plant response rating, Rape: 0
rape; [8]
  Rape plant response rating: 0
soybean; [1]
  Soybean plant response rating: 1
soybean; [2]
  Soybean plant response rating: 0
soybean; [3]
  Soybean plant response rating (0 to 10 scale): 0
soybean; [4]
  Soybean plant response rating: 0
soybean; [5]
  Soybean plant response rating: 0
soybean; [6]
  Soybean plant response rating: 1
soybean; [7]
  Plant response rating, Soybean: 1
soybean; [8]
  Soybean plant response rating: 1
Sugar beet; [1]
  Sugarbeets plant response rating: 0
Sugar beet; [2]
  Sugarbeets plant response rating: 0
Sugar beet; [3]
  Sugarbeets plant response rating (0 to 10 scale): 2
Sugar beet; [4]
  Sugarbeets plant response rating: 4
Sugar beet; [5]
  Sugarbeets plant response rating: 7
Sugar beet; [6]
  Sugarbeets plant response rating: 0
Sugar beet; [7]
  Plant response rating, Sugarbeets: 0
Sugar beet; [8]
  Sugarbeets plant response rating: 2
velvetleaf; [1]
  Velvetleaf plant response rating: 0
velvetleaf; [2]
  Velvetleaf plant response rating: 0
velvetleaf; [3]
  Velvetleaf plant response rating (0 to 10 scale): 0
velvetleaf; [4]
  Velvetleaf plant response rating: 2
velvetleaf; [5]
  Velvetleaf plant response rating: 7
velvetleaf; [6]
  Velvetleaf plant response rating: 0
velvetleaf; [7]
  Plant response rating, Velvetleaf: 0
velvetleaf; [8]
  Velvetleaf plant response rating: 4
wheat; [1]
  Wheat plant response rating: 0
wheat; [2]
  Wheat plant response rating: 0
wheat; [3]
  Wheat plant response rating (0 to 10 scale): 0
wheat; [4]
  Wheat plant response rating: 0
wheat; [5]
  Wheat plant response rating: 0
wheat; [6]
  Wheat plant response rating: 0
wheat; [7]
  Plant response rating, Wheat: 0
wheat; [8]
  Wheat plant response rating: 0
Wild oat; [1]
  Wild oats plant response rating: 0
Wild oat; [2]
  Wild oats plant response rating: 0
Wild oat; [3]
  Wild oats plant response rating (0 to 10 scale): 0
Wild oat; [4]
  Wild oats plant response rating: 2
Wild oat; [5]
  Wild oats plant response rating: 2
Wild oat; [6]
  Wild oats plant response rating: 0
Wild oat; [7]
  Plant response rating, Wild oats: 0
Wild oat; [8]
  Wild oats plant response rating: 0
Purple nutsedge; [1]
  Nutsedge plant response rating: 0
Purple nutsedge; [2]
  Nutsedge plant response rating: 0
Purple nutsedge; [3]
  Nutsedge plant response rating (0 to 10 scale): 0
Purple nutsedge; [4]
  Nutsedge plant response rating: 0
Purple nutsedge; [5]
  Nutsedge plant response rating: 0
Purple nutsedge; [6]
  Nutsedge plant response rating: 0
Purple nutsedge; [7]
  Plant response rating, Nutsedge: 0
Purple nutsedge; [8]
  Nutsedge plant response rating: 0
